Source: PubChem BioAssay (NCI)
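How tested: cells in 96-well plates exposed to compound for 48 hours at five concentrations. GI50 marks 50% less growth. TGI marks complete inhibition of growth.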

Legend:
Assay in all cases: NCI-60 cell line screen, 48 h
786-0 renal = system: 786-0 renal
A498 renal = system: A498 renal
A549 NSCLC = system: A549 NSCLC
ACHN renal = system: ACHN renal
BT-549 breast = system: BT-549 breast
CAKI-1 renal = system: CAKI-1 renal
CCRF-CEM leukemia = system: CCRF-CEM leukemia
COLO 205 colon = system: COLO 205 colon
DU-145 prostate = system: DU-145 prostate
EKVX NSCLC = system: EKVX NSCLC
HCC-2998 colon = system: HCC-2998 colon
HCT-116 colon = system: HCT-116 colon
HCT-15 colon = system: HCT-15 colon
HL-60(TB) leukemia = system: HL-60(TB) leukemia
HOP-62 NSCLC = system: HOP-62 NSCLC
HOP-92 NSCLC = system: HOP-92 NSCLC
HS 578T breast = system: HS 578T breast
HT29 colon = system: HT29 colon
IGROV1 ovarian = system: IGROV1 ovarian
K-562 leukemia = system: K-562 leukemia
KM12 colon = system: KM12 colon
LOX IMVI melanoma = system: LOX IMVI melanoma
M14 melanoma = system: M14 melanoma
MALME-3M melanoma = system: MALME-3M melanoma
MCF7 breast = system: MCF7 breast
MDA-MB-231 breast = system: MDA-MB-231 breast
MDA-MB-435 = system: MDA-MB-435
MDA-MB-468 breast = system: MDA-MB-468 breast
MOLT-4 leukemia = system: MOLT-4 leukemia
NCI-H226 lung = system: NCI-H226 lung
NCI-H23 lung = system: NCI-H23 lung
NCI-H460 lung = system: NCI-H460 lung
NCI-H522 lung = system: NCI-H522 lung
NCI/ADR-RES ovarian = system: NCI/ADR-RES ovarian
OVCAR-3 ovarian = system: OVCAR-3 ovarian
OVCAR-4 ovarian = system: OVCAR-4 ovarian
OVCAR-5 ovarian = system: OVCAR-5 ovarian
OVCAR-8 ovarian = system: OVCAR-8 ovarian
PC-3 prostate = system: PC-3 prostate
RPMI-8226 leukemia = system: RPMI-8226 leukemia
RXF 393 renal = system: RXF 393 renal
SF-268 CNS = system: SF-268 CNS
SF-295 CNS = system: SF-295 CNS
SF-539 CNS = system: SF-539 CNS
SK-MEL-2 melanoma = system: SK-MEL-2 melanoma
SK-MEL-28 melanoma = system: SK-MEL-28 melanoma
SK-MEL-5 melanoma = system: SK-MEL-5 melanoma
SK-OV-3 ovarian = system: SK-OV-3 ovarian
SN12C renal = system: SN12C renal
SNB-19 CNS = system: SNB-19 CNS
SNB-75 CNS = system: SNB-75 CNS
SR leukemia = system: SR leukemia
SW-620 colon = system: SW-620 colon
T-47D breast = system: T-47D breast
TK-10 renal = system: TK-10 renal
U251 CNS = system: U251 CNS
UACC-257 melanoma = system: UACC-257 melanoma
UACC-62 melanoma = system: UACC-62 melanoma
UO-31 renal = system: UO-31 renal

Compound: CN(C)c1ccnc(CNCCSC2(c3ccc(C(F)(F)F)cc3)c3ccccc3C=Cc3ccccc32)c1
- GI50 (786-0 renal): 2.49 µM
- TGI (786-0 renal): 7.12 µM
- GI50 (A498 renal): 11.9 µM
- TGI (A498 renal): 27.2 µM
- GI50 (A549 NSCLC): 1.35 µM
- TGI (A549 NSCLC): 5.71 µM
- GI50 (ACHN renal): 3.21 µM
- TGI (ACHN renal): 14.6 µM
- GI50 (BT-549 breast): 3.19 µM
- TGI (BT-549 breast): 9.62 µM
- GI50 (CAKI-1 renal): 4.37 µM
- TGI (CAKI-1 renal): 16.5 µM
- GI50 (CCRF-CEM leukemia): 1.06 µM
- TGI (CCRF-CEM leukemia): 13.4 µM
- GI50 (COLO 205 colon): 0.927 µM
- TGI (COLO 205 colon): 2.9 µM
- GI50 (DU-145 prostate): 3.12 µM
- TGI (DU-145 prostate): 10.8 µM
- GI50 (EKVX NSCLC): 1.77 µM
- TGI (EKVX NSCLC): 14.2 µM
- GI50 (HCC-2998 colon): 0.91 µM
- TGI (HCC-2998 colon): 2.63 µM
- GI50 (HCT-116 colon): 0.611 µM
- TGI (HCT-116 colon): 12.5 µM
- GI50 (HCT-15 colon): 1.12 µM
- TGI (HCT-15 colon): 6.62 µM
- GI50 (HL-60(TB) leukemia): 1.2 µM
- TGI (HL-60(TB) leukemia): 3.91 µM
- GI50 (HOP-62 NSCLC): 2.69 µM
- TGI (HOP-62 NSCLC): 13.9 µM
- GI50 (HOP-92 NSCLC): 2.17 µM
- TGI (HOP-92 NSCLC): 10.2 µM
- GI50 (HS 578T breast): 1.57 µM
- TGI (HS 578T breast): 6.75 µM
- GI50 (HT29 colon): 1.79 µM
- TGI (HT29 colon): 5.65 µM
- GI50 (IGROV1 ovarian): 2.58 µM
- TGI (IGROV1 ovarian): 16 µM
- GI50 (K-562 leukemia): 2.8 µM
- TGI (K-562 leukemia): 14 µM
- GI50 (KM12 colon): 1.41 µM
- TGI (KM12 colon): 5.33 µM
- GI50 (LOX IMVI melanoma): 2.2 µM
- TGI (LOX IMVI melanoma): 6.16 µM
- GI50 (M14 melanoma): 0.598 µM
- TGI (M14 melanoma): 2.69 µM
- GI50 (MALME-3M melanoma): 2.35 µM
- TGI (MALME-3M melanoma): 6.51 µM
- GI50 (MCF7 breast): 0.853 µM
- TGI (MCF7 breast): 4.19 µM
- GI50 (MDA-MB-231 breast): 1.11 µM
- TGI (MDA-MB-231 breast): 3.36 µM
- GI50 (MDA-MB-435): 0.605 µM
- TGI (MDA-MB-435): 1.34 µM
- GI50 (MDA-MB-468 breast): 0.74 µM
- TGI (MDA-MB-468 breast): 1.99 µM
- GI50 (MOLT-4 leukemia): 1.12 µM
- TGI (MOLT-4 leukemia): 5.41 µM
- GI50 (NCI-H226 lung): 5.45 µM
- TGI (NCI-H226 lung): 16.3 µM
- GI50 (NCI-H23 lung): 2.8 µM
- TGI (NCI-H23 lung): 9.31 µM
- GI50 (NCI-H460 lung): 1.09 µM
- TGI (NCI-H460 lung): 3.86 µM
- GI50 (NCI-H522 lung): 0.771 µM
- TGI (NCI-H522 lung): 2.49 µM
- GI50 (NCI/ADR-RES ovarian): 2 µM
- TGI (NCI/ADR-RES ovarian): 4.39 µM
- GI50 (OVCAR-3 ovarian): 1.73 µM
- TGI (OVCAR-3 ovarian): 5.93 µM
- GI50 (OVCAR-4 ovarian): 5.33 µM
- TGI (OVCAR-4 ovarian): 16.3 µM
- GI50 (OVCAR-5 ovarian): 2.74 µM
- TGI (OVCAR-5 ovarian): 11.2 µM
- GI50 (OVCAR-8 ovarian): 1.18 µM
- TGI (OVCAR-8 ovarian): 4.73 µM
- GI50 (PC-3 prostate): 1.49 µM
- TGI (PC-3 prostate): 11.3 µM
- GI50 (RPMI-8226 leukemia): 1.03 µM
- TGI (RPMI-8226 leukemia): 4.41 µM
- GI50 (RXF 393 renal): 1.97 µM
- TGI (RXF 393 renal): 7.54 µM
- GI50 (SF-268 CNS): 3.67 µM
- TGI (SF-268 CNS): 16.6 µM
- GI50 (SF-295 CNS): 1.6 µM
- TGI (SF-295 CNS): 6.56 µM
- GI50 (SF-539 CNS): 1.12 µM
- TGI (SF-539 CNS): 3.18 µM
- GI50 (SK-MEL-2 melanoma): 1.2 µM
- TGI (SK-MEL-2 melanoma): 3.72 µM
- GI50 (SK-MEL-28 melanoma): 4.34 µM
- TGI (SK-MEL-28 melanoma): 9.09 µM
- GI50 (SK-MEL-5 melanoma): 1.96 µM
- TGI (SK-MEL-5 melanoma): 5.43 µM
- GI50 (SK-OV-3 ovarian): 4.38 µM
- TGI (SK-OV-3 ovarian): 13.7 µM
- GI50 (SN12C renal): 2.16 µM
- TGI (SN12C renal): 8.08 µM
- GI50 (SNB-19 CNS): 3.53 µM
- TGI (SNB-19 CNS): 17.3 µM
- GI50 (SNB-75 CNS): 1.76 µM
- TGI (SNB-75 CNS): 6.61 µM
- GI50 (SR leukemia): 0.723 µM
- TGI (SR leukemia): 4.15 µM
- GI50 (SW-620 colon): 1 µM
- TGI (SW-620 colon): 4.45 µM
- GI50 (T-47D breast): 4.63 µM
- TGI (T-47D breast): 15.7 µM
- GI50 (TK-10 renal): 7.1 µM
- TGI (TK-10 renal): 21.3 µM
- GI50 (U251 CNS): 1.11 µM
- TGI (U251 CNS): 4.03 µM
- GI50 (UACC-257 melanoma): 4.33 µM
- TGI (UACC-257 melanoma): 11.2 µM
- GI50 (UACC-62 melanoma): 3.41 µM
- TGI (UACC-62 melanoma): 8.81 µM
- GI50 (UO-31 renal): 3.91 µM
- TGI (UO-31 renal): 16.2 µM
